Measurements from paper PMC9292003, “A β‐ketoacyl carrier protein reductase confers heat tolerance via the regulation of fatty acid biosynthesis and stress signaling in rice” (The New Phytologist, 2021).

Target: T1, HTS1 (GST-HTS1) (Oryza sativa, UniProt Q7XMI8)
T1 construct: E. coli BL21; vector printed as pET30a
Test: NADPH absorption at
Format: biochemical
Conditions: reductase activity; co-substrate printed as NADH in results, NADPH in methods

With CC(=O)CC(=O)SCCNC(=O)CCNC(=O)[C@H](O)C(C)(C)COP(=O)(O)OP(=O)(O)OC[C@H]1O[C@@H](n2cnc3c(N)ncnc32)[C@H](O)[C@@H]1OP(=O)(O)O [acetoacetyl-CoA] the “NADPH absorption at 340 nm” value was “High catalytic activity was detected in GST‐HTS1 after introducing acetoacetyl‐CoA and NADH”.
